Activity calls are given as the source filed them. The calls are words filed in the database; no cut-off is given here.
Key:
[1] = target: T1, Muscarinic acetylcholine receptor M4 (Mus musculus) (UniProt P32211); experiment: Agonist activity at muscarinic M4 receptor in wild type mouse hippocampal CA1 pyramidal neuron assessed as reduction of inhibitory postsynaptic current amplitude at 2 uM by whole-cell electrophysiology relative to control; format: functional, tissue-based; details: Hippocampus
T1 sequence (whole entry): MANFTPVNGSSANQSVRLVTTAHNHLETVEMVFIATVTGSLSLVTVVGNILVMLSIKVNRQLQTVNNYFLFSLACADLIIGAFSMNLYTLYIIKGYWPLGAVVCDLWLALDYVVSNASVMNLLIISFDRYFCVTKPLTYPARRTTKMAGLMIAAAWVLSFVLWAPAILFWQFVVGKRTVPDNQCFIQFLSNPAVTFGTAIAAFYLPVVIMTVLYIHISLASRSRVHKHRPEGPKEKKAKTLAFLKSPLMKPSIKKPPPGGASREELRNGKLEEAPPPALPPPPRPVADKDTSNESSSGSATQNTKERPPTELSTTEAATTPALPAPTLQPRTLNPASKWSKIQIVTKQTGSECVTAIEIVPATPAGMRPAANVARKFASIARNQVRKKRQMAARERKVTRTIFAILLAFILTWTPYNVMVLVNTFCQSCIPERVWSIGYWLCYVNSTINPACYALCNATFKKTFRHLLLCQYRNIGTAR

[2] = target: T1, Muscarinic acetylcholine receptor M4 (Mus musculus); experiment: Agonist activity at muscarinic M4 receptor in wild type mouse hippocampal CA1 pyramidal neuron assessed as excitatory postsynaptic current amplitude at 5 uM by whole-cell electrophysiology relative to control; format: functional, tissue-based; details: Hippocampus
[3] = target: T1, Muscarinic acetylcholine receptor M4 (Mus musculus); experiment: Agonist activity at muscarinic M4 receptor in wild type mouse hippocampal CA1 pyramidal neuron assessed as reduction of excitatory postsynaptic current at 2 uM by whole-cell electrophysiology relative to control; format: functional, tissue-based; details: Hippocampus
[4] = target: T2, Muscarinic acetylcholine receptor M4 (Rattus norvegicus) (UniProt P08485); experiment: Agonist activity at muscarinic M4 receptor in Sprague-Dawley rat hippocampal CA1 pyramidal neuron assessed as reduction of inhibitory postsynaptic current at 100 uM by whole-cell electrophysiology relative to control; format: functional, tissue-based; details: Hippocampus
T2 sequence (whole entry): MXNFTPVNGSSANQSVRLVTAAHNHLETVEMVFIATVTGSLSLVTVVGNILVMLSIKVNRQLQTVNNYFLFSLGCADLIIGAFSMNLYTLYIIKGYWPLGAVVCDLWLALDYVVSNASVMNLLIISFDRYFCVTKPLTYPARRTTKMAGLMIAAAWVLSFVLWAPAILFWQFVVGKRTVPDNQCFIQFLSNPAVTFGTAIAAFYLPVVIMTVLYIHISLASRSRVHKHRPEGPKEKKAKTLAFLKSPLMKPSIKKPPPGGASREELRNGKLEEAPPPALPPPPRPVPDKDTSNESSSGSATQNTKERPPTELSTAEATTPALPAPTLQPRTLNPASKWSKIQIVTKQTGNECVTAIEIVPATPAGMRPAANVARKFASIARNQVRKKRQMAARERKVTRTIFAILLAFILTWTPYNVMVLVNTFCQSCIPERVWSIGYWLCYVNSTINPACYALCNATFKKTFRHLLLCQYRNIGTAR

[5] = target: Muscarinic acetylcholine receptor M3 (Rattus norvegicus) (UniProt P08483); experiment: Allosteric activation of rat recombinant muscarinic M3 receptor expressed in CHO cells assessed as potentiation of acetylcholine-induced calcium mobilization at 10 uM after 1 hr by fluorescence assay; format: functional, cell-based
Muscarinic acetylcholine receptor M3 (Rattus norvegicus), sequence (P08483 whole entry, looked up): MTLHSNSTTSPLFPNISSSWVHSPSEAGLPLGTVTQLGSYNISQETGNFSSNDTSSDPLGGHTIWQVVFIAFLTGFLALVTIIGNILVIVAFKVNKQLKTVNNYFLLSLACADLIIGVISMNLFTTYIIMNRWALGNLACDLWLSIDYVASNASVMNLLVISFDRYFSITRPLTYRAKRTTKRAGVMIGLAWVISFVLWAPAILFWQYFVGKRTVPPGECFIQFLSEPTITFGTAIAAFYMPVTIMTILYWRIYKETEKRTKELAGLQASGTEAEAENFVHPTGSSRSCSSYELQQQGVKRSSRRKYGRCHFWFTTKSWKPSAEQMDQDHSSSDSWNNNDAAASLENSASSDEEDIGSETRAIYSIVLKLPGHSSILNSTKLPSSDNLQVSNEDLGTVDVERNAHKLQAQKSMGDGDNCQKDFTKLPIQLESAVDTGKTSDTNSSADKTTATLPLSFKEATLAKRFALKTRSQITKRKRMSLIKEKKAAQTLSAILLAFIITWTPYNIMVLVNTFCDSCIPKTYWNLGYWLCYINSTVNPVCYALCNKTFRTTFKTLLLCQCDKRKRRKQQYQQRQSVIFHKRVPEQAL

[6] = target: T3, Muscarinic acetylcholine receptor M1 (Rattus norvegicus) (UniProt P08482); experiment: Allosteric activation of rat recombinant muscarinic M1 receptor expressed in CHO cells assessed as potentiation of acetylcholine-induced calcium mobilization at 10 uM after 1 hr by fluorescence assay; format: functional, cell-based
T3 sequence (whole entry): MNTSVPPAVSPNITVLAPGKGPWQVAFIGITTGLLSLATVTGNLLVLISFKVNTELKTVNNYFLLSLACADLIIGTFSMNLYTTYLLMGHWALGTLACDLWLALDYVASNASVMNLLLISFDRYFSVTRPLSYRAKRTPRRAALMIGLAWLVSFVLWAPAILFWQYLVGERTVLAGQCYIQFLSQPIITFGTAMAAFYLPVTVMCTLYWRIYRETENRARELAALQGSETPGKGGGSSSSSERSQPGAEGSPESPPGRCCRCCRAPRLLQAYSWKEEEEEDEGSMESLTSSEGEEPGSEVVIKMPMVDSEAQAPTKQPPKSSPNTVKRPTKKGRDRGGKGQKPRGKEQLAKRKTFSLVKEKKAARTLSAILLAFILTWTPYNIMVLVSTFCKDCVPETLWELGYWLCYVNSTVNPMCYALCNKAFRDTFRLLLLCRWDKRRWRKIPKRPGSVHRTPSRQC

CHO [7] = experiment: Agonist activity at P2Y1 receptor in CHO cells assessed as induction of calcium mobilization at 10 uM after 1 hr by fluorescence assay; format: functional, cell-based; details: Cricetulus griseus
[8] = target: T2, Muscarinic acetylcholine receptor M4 (Rattus norvegicus); experiment: Agonist activity at muscarinic M4 receptor in Sprague-Dawley rat hippocampal CA1 pyramidal neuron assessed as reduction of excitatory postsynaptic current at 100 uM by whole-cell electrophysiology relative to control; format: functional, tissue-based; details: Hippocampus
[9] = target: T2, Muscarinic acetylcholine receptor M4 (Rattus norvegicus); experiment: Allosteric activation of rat recombinant muscarinic M4 receptor expressed in CHO cells assessed as […] in acetylcholine EC50 for induction of calcium mobilization at 10 uM after 1 hr by fluorescence assay; format: functional, cell-based
CHO [10] = experiment: Allosteric activation at P2Y1 receptor in CHO cells assessed as potentiation of acetylcholine-induced calcium mobilization at 10 uM after 1 hr by fluorescence assay; format: cell-based; details: Cricetulus griseus
[11] = target: T4, Muscarinic acetylcholine receptor M4 (Rattus norvegicus, UniProt P08485); experiment: Allosteric activation of rat recombinant muscarinic M4 receptor expressed in CHO cells assessed as potentiation of 10 uM acetylcholine-induced calcium mobilization after 1 hr by fluorescence assay; format: functional, cell-based
T4 sequence (P08485 whole entry): T2 sequence (whole entry)

[12] = Agonist activity at muscarinic receptor in M4 receptor knock out mouse hippocampal CA1 pyramidal neuron assessed as reduction of excitatory postsynaptic current amplitude at 5 uM by whole-cell electrophysiology in presence of carbachol relative to control; format: functional; details: Hippocampus
[13] = target: T2, Muscarinic acetylcholine receptor M4 (Rattus norvegicus); experiment: Agonist activity at muscarinic M4 receptor in Sprague-Dawley rat hippocampal CA1 pyramidal neuron assessed as inhibitory postsynaptic current amplitude at 5 uM by whole-cell electrophysiology relative to control; format: functional, tissue-based; design: scale not given: the % may be the effect or the level left; details: Hippocampus
[14] = target: T2, Muscarinic acetylcholine receptor M4 (Rattus norvegicus); experiment: Allosteric activation of rat recombinant muscarinic M4 receptor expressed in CHO cells assessed as fold decrease in acetylcholine Ki for displacement of [3H]NMS from active binding site after 2 hrs by microplate scintillation counting; format: cell-based
[15] = target: T1, Muscarinic acetylcholine receptor M4 (Mus musculus); experiment: Agonist activity at muscarinic M4 receptor in wild type mouse hippocampal CA1 pyramidal neuron assessed as increase in carbachol-induced reduction in excitatory postsynaptic current at 5 uM by whole-cell electrophysiology relative to control; format: functional, tissue-based; design: scale not given: the % may be the effect or the level left; details: Hippocampus
[16] = target: T2, Muscarinic acetylcholine receptor M4 (Rattus norvegicus); experiment: Agonist activity at muscarinic M4 receptor in Sprague-Dawley rat hippocampal CA1 pyramidal neuron assessed as reduction of excitatory postsynaptic current at 1 uM by whole-cell electrophysiology relative to control; format: functional, tissue-based; design: scale not given: the % may be the effect or the level left; details: Hippocampus

Cc1cc(C)c2c(N)c(C(=O)NCc3ccc(Cl)cc3)sc2n1 showed an inhibition [1] of 56%, an Activity [2] of 102% and an inhibition [3] of 53.7%. For the same molecule, the inhibition [4] was 10.9%, the Activity [5] was “inactive” and the Activity [6] was “inactive”. The Activity (CHO [7]) was “inactive”, the inhibition [8] was 16.1% and the fold change (FC) [9] was 47. For the same molecule, the Activity (CHO [10]) was “inactive”, the EC50 [11] was 400 nM and the inhibition at 5 µM [12] was 77.5%. The Activity [13] was 98.5%, the Activity [14] was “Dose-dependent effect” and the Activity [15] was 39.8%. The Activity [16] was 60.5%.

From ChEMBL document CHEMBL1212695, “An allosteric potentiator of M4 mAChR modulates hippocampal synaptic transmission” (Nat Chem Biol, 2008)
